Assay results from paper PMC10924921, “Mi-2β promotes immune evasion in melanoma by activating EZH2 methylation” (Nature Communications, 2024).

Legend:
[1] = system: PC3 prostate cancer cells; set-up: method as in Shubhada Sharma, et al., Biochemistry 2013; details: ref Shubhada Sharma, et al., Biochemistry 2013; read-out: IC50, cytotoxicity; cited from earlier work
[2] = system: BRafV600E/Ptennull melanoma cells with or without Mi-2β; assay: CCK-8 proliferation after Braf inhibitor; format: cell-based, mouse; details: 10 μM, 24 h
Protocol: To test whether Mi-2β deficiency affects the sensitivity of tumor cells to Braf inhibitors, melanoma cells were isolated from Tyr::CreER;BRaf^CA;Pten^lox/lox and Tyr::CreER;BRaf^CA;Pten^lox/lox; Mi-2β^lox/lox mice and a cell proliferation assay was performed. BRAF mutation and Mi-2β-depleted melanoma cells or BRAF mutation melanoma cells (5 × 10^3 cells/100 μl) were cultured with 10 μM PLX4032 (Selleck, China) for 24 h and cell proliferation of melanoma cells were determined using the CCK-8 assay.
Supplementary Figure 2. […] Scale bar=200 µm. b Tumor-infiltrating lymphocytes were assayed by flow cytometry. c Treg cells within CD45+ T cells in TILs were assayed and quantified by flow cytometry.
(n=5). d Melanomas isolated from BRafV600E/Ptennull mice and BRafV600E/Ptennull /Mi-2βnull mice were processed for immunohistochemistry staining to detect the number of CD8+ T cells. […] Melanoma cells isolated from Tyr::CreER;BRafCA;Ptenlox/lox and Tyr::CreER;BRafCA;Ptenlox/lox;Mi-2βlox/lox mice were treated with PLX4032 (10μM) for 24 hours and cell proliferation was determined by CCK-8 assay (n=6). c, e, f: Values represent mean ± SD. […]

[3] = molecular target: recombinant purified human Mi-2β protein (Homo sapiens, UniProt Q14839); assay: FRET-based nucleosome repositioning assay (EpiDyne-FRET); details: read-out: apparent ATP Km; ATP titration 0.1 to 300 µM, 12.5 nM Mi-2β, 15 minutes
Chain of recombinant purified human Mi-2β protein (Q14839 whole entry): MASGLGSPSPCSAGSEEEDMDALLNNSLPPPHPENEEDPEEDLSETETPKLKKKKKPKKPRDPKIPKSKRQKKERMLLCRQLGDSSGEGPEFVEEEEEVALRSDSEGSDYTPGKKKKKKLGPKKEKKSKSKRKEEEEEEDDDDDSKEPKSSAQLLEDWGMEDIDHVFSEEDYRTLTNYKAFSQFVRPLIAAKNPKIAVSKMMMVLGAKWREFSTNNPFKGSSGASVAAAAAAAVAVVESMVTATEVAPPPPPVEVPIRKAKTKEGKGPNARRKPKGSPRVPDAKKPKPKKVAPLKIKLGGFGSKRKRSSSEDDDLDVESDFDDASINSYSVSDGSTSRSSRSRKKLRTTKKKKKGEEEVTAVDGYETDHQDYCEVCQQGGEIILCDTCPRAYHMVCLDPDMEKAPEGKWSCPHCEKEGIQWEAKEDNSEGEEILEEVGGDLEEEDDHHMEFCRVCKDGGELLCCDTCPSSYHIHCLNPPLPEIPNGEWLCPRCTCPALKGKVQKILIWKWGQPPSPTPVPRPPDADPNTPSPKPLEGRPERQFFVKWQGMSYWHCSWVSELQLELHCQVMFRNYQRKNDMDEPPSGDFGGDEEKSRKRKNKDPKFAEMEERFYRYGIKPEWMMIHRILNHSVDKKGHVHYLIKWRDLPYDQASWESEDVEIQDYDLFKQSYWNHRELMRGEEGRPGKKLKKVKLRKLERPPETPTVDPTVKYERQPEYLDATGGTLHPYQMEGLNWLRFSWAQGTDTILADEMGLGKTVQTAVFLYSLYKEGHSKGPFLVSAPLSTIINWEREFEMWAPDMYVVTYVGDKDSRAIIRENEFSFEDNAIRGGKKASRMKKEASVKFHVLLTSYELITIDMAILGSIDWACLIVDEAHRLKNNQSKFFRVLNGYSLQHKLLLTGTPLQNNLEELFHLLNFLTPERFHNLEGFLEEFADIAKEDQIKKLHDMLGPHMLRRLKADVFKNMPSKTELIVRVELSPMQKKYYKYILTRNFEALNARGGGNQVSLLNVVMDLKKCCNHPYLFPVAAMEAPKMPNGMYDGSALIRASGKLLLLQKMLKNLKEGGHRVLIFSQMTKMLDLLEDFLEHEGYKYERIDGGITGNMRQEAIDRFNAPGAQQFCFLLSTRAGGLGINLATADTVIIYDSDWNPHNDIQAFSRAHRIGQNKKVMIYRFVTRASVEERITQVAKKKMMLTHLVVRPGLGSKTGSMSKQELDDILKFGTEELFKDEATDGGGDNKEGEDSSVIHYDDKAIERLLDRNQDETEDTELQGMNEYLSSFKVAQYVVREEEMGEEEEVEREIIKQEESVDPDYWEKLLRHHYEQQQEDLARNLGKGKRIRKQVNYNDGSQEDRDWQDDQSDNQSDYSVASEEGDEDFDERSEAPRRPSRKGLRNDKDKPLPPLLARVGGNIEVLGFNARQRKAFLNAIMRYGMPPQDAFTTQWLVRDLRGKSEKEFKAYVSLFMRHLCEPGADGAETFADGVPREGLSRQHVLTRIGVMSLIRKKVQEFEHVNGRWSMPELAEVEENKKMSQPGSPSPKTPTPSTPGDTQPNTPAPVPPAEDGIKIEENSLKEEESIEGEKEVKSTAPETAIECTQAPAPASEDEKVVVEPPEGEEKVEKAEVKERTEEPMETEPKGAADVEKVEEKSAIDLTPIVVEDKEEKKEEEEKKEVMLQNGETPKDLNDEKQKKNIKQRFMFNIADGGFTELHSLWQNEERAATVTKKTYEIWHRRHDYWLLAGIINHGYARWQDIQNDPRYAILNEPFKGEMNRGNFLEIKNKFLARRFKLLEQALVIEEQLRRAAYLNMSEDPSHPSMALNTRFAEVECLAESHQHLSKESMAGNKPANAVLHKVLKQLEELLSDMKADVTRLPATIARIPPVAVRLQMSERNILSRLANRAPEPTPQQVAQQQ

melanoma = details: cited from earlier work

CC(=O)O[C@H]1C(=O)[C@@]2(C)[C@H]([C@H](OC(=O)c3ccccc3)[C@]3(O)C[C@H](OC(=O)[C@H](O)[C@@H](NC(=O)c4ccccc4)c4ccccc4)C(C)=C1C3(C)C)[C@]1(OC(C)=O)CO[C@@H]1C[C@@H]2O [paclitaxel]
IC50 [1]: 1.41 nM

CCCS(=O)(=O)Nc1ccc(F)c(C(=O)c2c[nH]c3ncc(-c4ccc(Cl)cc4)cc23)c1F [PLX4032]
cell survival in melanoma cells with or without Mi-2β expression [2]: no difference in cell survival

Nc1ncnc2c1ncn2[C@@H]1O[C@H](COP(=O)(O)OP(=O)(O)OP(=O)(O)O)[C@@H](O)[C@H]1O [ATP]
Km [3]: 11.5 µM

pembrolizumab: anti-PD-1 antibody
melanoma patients that respond (melanoma): 33%

ipilimumab: anti-CTLA-4 antibody
melanoma patients that respond (melanoma): 20%
